In brackets after ≈: the same amount, converted by molar mass. Where a SMILES comes first, the peptide text is derived from it. Bridges are numbered along the chain shown (N, C = ends). [ ]: non-standard residue; d: D form. The star is where a group is joined. Heptanoyl(6-Me) = CC(C)CCCCC(=O)*; dDab = NCC[C@@H](N)C(=O)O; Dab = NCC[C@H](N)C(=O)O
Columns and labels:
E. coli 7210 = settings: 7210
K. Pneumoniae GMCH04 = settings: GMCH04
E. coli 7932 = settings: 7932
E. coli ATCC 25922 = experiment: NPN uptake assay, outer membrane permeabilization; assay type: cell-based; settings: E. coli ATCC 25922, 10 and 20 μg/ml, 1 h, compared with polymyxin B
E. coli 14504 = settings: 14504
K. Pneumoniae 827 = settings: 827
K. Pneumoniae GMCH13 = settings: GMCH13
P. aeruginosa PA1 = settings: PA1
P. aeruginosa GMCH06 = settings: GMCH06
E. coli 14363 = settings: 14363
P. aeruginosa ATCC 27853 = experiment: Time-kill kinetics; assay type: cell-based; settings: P. aeruginosa ATCC 27853, 2xMIC
K. Pneumoniae GMCH12 = settings: GMCH12
[1] = tested on: Escherichia coli ATCC 25922; settings: ATCC 25922
P. aeruginosa PA3 = settings: PA3
[2] = tested on: Escherichia coli ATCC 35218; settings: ATCC 35218
K. Pneumoniae 1573 = settings: 1573
P. aeruginosa PA2 = settings: PA2
P. aeruginosa PA5 = settings: PA5
[3] = tested on: Klebsiella pneumoniae ATCC 700603; settings: ATCC 700603
A. baumannii AB1 = settings: AB1
[4] = tested on: Klebsiella pneumoniae ATCC 29665; settings: ATCC 29665
K. Pneumoniae 1428 = settings: 1428
A. baumannii AB2 = settings: AB2
[5] = tested on: Vibrio parahaemolyticus ATCC17802
E. coli 13425 = settings: 13425
E. coli 9062 = settings: 9062
[6] = tested on: Staphylococcus aureus ATCC 25923; settings: ATCC 25923
A. baumannii GMCH18 = settings: GMCH18
K. Pneumoniae GMCH11 = settings: GMCH11
E. coli 7534 = settings: 7534
[7] = tested on: Klebsiella pneumoniae ATCC- BAA 2146; settings: BAA 2146
E. coli 3185 = settings: 3185
E. coli 14084 = settings: 14084
[8] = tested on: Bacillus subtilis ATCC 6633; settings: ATCC 6633
K. Pneumoniae GMCH10 = settings: GMCH10
K. Pneumoniae B8 = settings: B8
K. Pneumoniae GMCH 16 = settings: GMCH 16
P. aeruginosa PA4 = settings: PA4
[9] = tested on: Pseudomonas aeruginosa ATCC 27853; settings: ATCC 27853
A. baumannii GMCH 14 = settings: GMCH 14
[10] = tested on: human leukemic monocyte cell line (THP-1 ATCC TIB-202); assay type: cell-based
Description: (§1) 3-(4,5-dimethylthiazol-2-yl)-2,5-diphenyltetrazolium bromide (MTT) assay was employed to examine the cytotoxicity against human leukemic monocyte cell line (THP-1 ATCC TIB-202) and human embryonic kidney cell line (HEK293 ATCC CRL-1573) as explained by [Kaur et al. (2017)]. Toxicity of both compounds was compared with polymyxin B and colistin at concentrations ranging from 62.5 to1000 μg/ml.

[11] = tested on: human embryonic kidney cell line (HEK293 ATCC CRL-1573); assay type: cell-based
Description: as §1

[12] = tested on: Acinetobacter baumannii ATCC 19606; settings: ATCC 19606
P. aeruginosa PA6 = settings: PA6
[13] = tested on: Vibrio cholerae MTCC 3906
[14] = tested on: Klebsiella pneumoniae ATCC BAA1706; settings: ATCC BAA1706
[15] = tested on: Enterococcus faecalis ATCC 51299; settings: ATCC 51299
A. baumannii GMCH05 = settings: GMCH05
[16] = tested on: clinical MDR isolates (E. coli, K. pneumoniae, A. baumanii, P. aeruginosa); assay type: cell-based; settings: in 25 of 31 clinical isolates

Structure (SMILES): CC(C)CCCCC(=O)N[C@@H](CCN)C(=O)N[C@H](C(=O)N[C@H](CCN)C(=O)N[C@H]1CCNC(=O)[C@H]([C@@H](C)O)NC(=O)[C@H](CCN)NC(=O)[C@H](CCN)NC(=O)[C@H]([C@@H](C)O)NC(=O)[C@@H](CC(C)C)NC(=O)[C@H](CCN)NC1=O)[C@@H](C)O [P1, polymyxin A2] ({Heptanoyl(6-Me)}-[Dab]T[dDab][Dab][Dab][dL]T[Dab][Dab]T; lactam 4-C)
- MIC (E. coli 7210): 0.25 µg/mL (≈ 0.219 µM)
- MIC (K. Pneumoniae GMCH04): 0.25 µg/mL (≈ 0.219 µM)
- MIC (E. coli 7932): 0.25 µg/mL (≈ 0.219 µM)
- NPN uptake (fluorescence intensity) (E. coli ATCC 25922): slightly higher NPN uptake
- MIC (E. coli 14504): 0.25 µg/mL (≈ 0.219 µM)
- MIC (K. Pneumoniae 827): 0.5 µg/mL (≈ 0.437 µM)
- MIC (K. Pneumoniae GMCH13): 0.5 µg/mL (≈ 0.437 µM)
- MIC (P. aeruginosa PA1): 1 µg/mL (≈ 0.875 µM)
- MIC (P. aeruginosa GMCH06): 0.5 µg/mL (≈ 0.437 µM)
- MIC (E. coli 14363): 0.25 µg/mL (≈ 0.219 µM)
- time to kill (P. aeruginosa ATCC 27853): 4 h
- MIC (K. Pneumoniae GMCH12): 0.5 µg/mL (≈ 0.437 µM)
- MIC [1]: 1 µg/mL (≈ 0.875 µM)
- MIC (P. aeruginosa PA3): 1 µg/mL (≈ 0.875 µM)
- MIC [2]: 0.25 µg/mL (≈ 0.219 µM)
- MIC (K. Pneumoniae 1573): 0.5 µg/mL (≈ 0.437 µM)
- MIC (P. aeruginosa PA2): 1 µg/mL (≈ 0.875 µM)
- MIC (P. aeruginosa PA5): 1 µg/mL (≈ 0.875 µM)
- MIC [3]: 1 µg/mL (≈ 0.875 µM)
- MIC (A. baumannii AB1): 0.5 µg/mL (≈ 0.437 µM)
- MIC [4]: 0.5 µg/mL (≈ 0.437 µM)
- MIC (K. Pneumoniae 1428): 1 µg/mL (≈ 0.875 µM)
- MIC (A. baumannii AB2): 1 µg/mL (≈ 0.875 µM)
- MIC [5]: 1 µg/mL (≈ 0.875 µM)
- MIC (E. coli 13425): 0.25 µg/mL (≈ 0.219 µM)
- MIC (E. coli 9062): 0.25 µg/mL (≈ 0.219 µM)
- MIC [6]: >16 µg/mL
- MIC (A. baumannii GMCH18): 0.25 µg/mL (≈ 0.219 µM)
- MIC (K. Pneumoniae GMCH11): 1 µg/mL (≈ 0.875 µM)
- MIC (E. coli 7534): 0.25 µg/mL (≈ 0.219 µM)
- MIC [7]: 0.5 µg/mL (≈ 0.437 µM)
- MIC (E. coli 3185): 0.25 µg/mL (≈ 0.219 µM)
- MIC (E. coli 14084): 0.25 µg/mL (≈ 0.219 µM)
- MIC [8]: 16 µg/mL (≈ 14 µM)
- MIC (K. Pneumoniae GMCH10): 1 µg/mL (≈ 0.875 µM)
- MIC (K. Pneumoniae B8): 0.5 µg/mL (≈ 0.437 µM)
- MIC (K. Pneumoniae GMCH 16): 0.5 µg/mL (≈ 0.437 µM)
- MIC (P. aeruginosa PA4): 1 µg/mL (≈ 0.875 µM)
- MIC [9]: 0.5 µg/mL (≈ 0.437 µM)
- MIC (A. baumannii GMCH 14): 0.5 µg/mL (≈ 0.437 µM)
- IC50 [10]: approximately 1000 μg/ml
- IC50 [11]: > 1000 µg/mL
- MIC [12]: 0.5 µg/mL (≈ 0.437 µM)
- MIC (P. aeruginosa PA6): 1 µg/mL (≈ 0.875 µM)
- MIC [13]: >16 µg/mL
- MIC [14]: 0.5 µg/mL (≈ 0.437 µM)
- MIC [15]: >16 µg/mL
- MIC (A. baumannii GMCH05): 1 µg/mL (≈ 0.875 µM)
- fold less MIC than the other polymyxins [16]: 2–4 fold

From PMC6265310, “Purification, Characterization and in vitro Evaluation of Polymyxin A From Paenibacillus dendritiformis: An Underexplored Member of the Polymyxin Family” (Frontiers in Microbiology, 2018)
